In US20220339261A1, “ORAL PHARMACEUTICAL COMPOSITION INCLUDING TERIPARATIDE AND METHOD FOR PREPARING SAME” (ICURE BNP CO., LTD., priority 2019, published 2022):

What was measured:
[1] = Rat bioavailability / pharmacokinetics, plasma teriparatide by ELISA; settings: for AUCinf / AUClast: mean ± SD (n = 4)
Experimental: After anesthesia by intraperitoneal injection of ketamine (45 mg/kg) and xylazine (5 mg/kg) to female Sprague-Dawley rats (200-250 g, 6-7 weeks old), the abdomen of the rat was cut to take out the small intestine, and Examples 1 and 4 and Comparative Examples 1 and 2 prepared above were dispersed in purified water, and then injected into a proximal jejunum in an amount corresponding to 100 μg/kg as teriparatide by 400 μL. In addition, in order to evaluate the relative bioavailability, 150 μL of teriparatide solution dissolved in physiological saline was subcutaneously injected at an amount corresponding to 20 μg/kg as teriparatide.
After drug administration, blood samples were collected 150 μL at regular time intervals and mixed with 3.8% aqueous sodium citrate solution of 50 μL. Thereafter, the blood sample was centrifuged for 15 minutes at 2,500×g, at 4° C., and plasma was collected and stored at −70° C. The teriparatide concentration in plasma was measured at a wavelength of 620 nm using the human PTH (1-34) ELISA kit (ALPCO Diagnostics, USA). The pharmacokinetic parameters are estimated through the non-compartment method using WinNonlin S Software (ver. 5.3; Pharsight Corporation, USA) and are shown in Table 6 and FIG. 1.

[2] = Parallel artificial membrane permeability assay (PAMPA), effective permeability of teriparatide; format: in vitro ADME; settings: PBS pH 6.8, 200 μg/mL as teriparatide, room temperature, 5 hours, mean ± SD (n = 4)
Experimental: Effective permeability (Pe) through the artificial intestinal membrane of Examples 1 and Comparative Examples 1 to 7 prepared above was evaluated using the parallel artificial membrane permeability assay (PAMPA), which is an artificial intestinal membrane permeability evaluation system. First, the samples of Example 1 and Comparative Examples 1 to 7 were dissolved in phosphate buffer (PBS, pH 6.8) to a concentration of 200 μg/mL as teriparatide, and then 200 μL each was added to the donor part of the PAMPA system, and 300 μL of phosphate buffer (PBS, pH 6.8) was filled in the receiving part of the PAMPA system. […] Then, the solution of each well of the receiving part and the donor part was filtered through a membrane filter having a pore diameter of 0.45 μm, and then the concentration of teriparatide permeated through the artificial intestinal membrane was analyzed using the HPLC system under the following conditions.
50 μL of each sample was injected into the HPLC system, and acetonitrile (B) containing 0.1% (w/v) trifluoroacetic acid (TFA) aqueous solution (A) and 0.1% (w/v) TFA as mobile phases were separated by linearly changing the composition of mobile phase B from 51% to 76% for 25 minutes at a flow rate of 1.0 mL/min. Teriparatide was measured at 220 nm, and the effective transmittance (Pe) through the artificial intestinal membrane was calculated by Formula 1 below. […]

[3] = Apparent permeability through Caco-2 cell monolayer (Transwell); format: in vitro ADME; settings: Caco-2 monolayer, 200 μM as teriparatide in HBSS, 37° C., up to 5 hours; mean ± SD (n = 4); read-out: Apparent transmittance (Papp)
Experimental: The apparent permeability of the complexes prepared as in Example 1 and Comparative Examples 1 to 7 to the intestinal cell membrane, Caco-2 cell membrane, was evaluated as follows. After Caco-2 cells were treated at a concentration of 1×10^5 cells/mL in 24-well Transwell, respectively, and after culturing the cells for 14 to 16 days, a cell monolayer of the electrical resistance (TEER) value through the Caco-2 cell membrane was >350 Ω·cm^2 was used for the experiment. First, the medium was removed from the Transwell, and then the donor part and receiving part were filled with HBSS and cultured at 37° C. for 20 minutes, then the TEER value was measured again, and then HBSS was removed. […] At 0.5, 1, 2, 3, 4, and 5 hours, 100 μL samples were collected from the receiving part, filtered using a membrane filter (pore 0.45 μm, PVDF), and the concentration of teriparatide permeated through the intestinal cell membrane was analyzed by HPLC under the conditions mentioned in Experimental Example 1. Apparent intestinal cell membrane permeability (Papp) was calculated using Formula 2 below, and the results are shown in Table 3. […]

[4] = female, Sprague-Dawley, plasma, sc, 0.02 mg/kg
[5] = subcutaneous injection, 0.02 mg/kg as teriparatide
[6] = dosing in jejunum, 0.1 mg/kg as teriparatide

**Q.** Which Cmax [1, 4] does the source give for CC[C@H](C)[C@H](NC(=O)[C@H](CCC(=O)O)NC(=O)[C@H](CO)NC(=O)[C@@H](NC(=O)[C@@H](N)CO)C(C)C)C(=O)N[C@@H](CCC(N)=O)C(=O)N[C@@H](CC(C)C)C(=O)N[C@@H](CCSC)C(=O)N[C@@H](Cc1cnc[nH]1)C(=O)N[C@@H](CC(N)=O)C(=O)N[C@@H](CC(C)C)C(=O)NCC(=O)N[C@@H](CCCCN)C(=O)N[C@@H](Cc1cnc[nH]1)C(=O)N[C@@H](CC(C)C)C(=O)N[C@@H](CC(N)=O)C(=O)N[C@@H](CO)C(=O)N[C@@H](CCSC)C(=O)N[C@@H](CCC(=O)O)C(=O)N[C@@H](CCCN=C(N)N)C(=O)N[C@H](C(=O)N[C@@H](CCC(=O)O)C(=O)N[C@@H](Cc1c[nH]c2ccccc12)C(=O)N[C@@H](CC(C)C)C(=O)N[C@@H](CCCN=C(N)N)C(=O)N[C@@H](CCCCN)C(=O)N[C@@H](CCCCN)C(=O)N[C@@H](CC(C)C)C(=O)N[C@@H](CCC(N)=O)C(=O)N[C@@H](CC(=O)O)C(=O)N[C@H](C(=O)N[C@@H](Cc1cnc[nH]1)C(=O)N[C@@H](CC(N)=O)C(=O)N[C@@H](Cc1ccccc1)C(=O)O)C(C)C)C(C)C [Teriparatide] here?
**A.** 0.805 ± 0.209 ng/mL

**Q.** And the Tmax [1, 4]?
**A.** 15 min

**Q.** What about the bioavailability [1, 4] of the same compound?
**A.** 100%

**Q.** And the AUCinf [1, 5]?
**A.** 0.765 ± 0.199 ng ·) sh/mL

**Q.** And the AUClast [1, 5]?
**A.** 0.734 ± 0.191 ng ·) sh/mL

**Q.** For CC[C@H](C)[C@H](NC(=O)[C@H](CCC(=O)O)NC(=O)[C@H](CO)NC(=O)[C@@H](NC(=O)[C@@H](N)CO)C(C)C)C(=O)N[C@@H](CCC(N)=O)C(=O)N[C@@H](CC(C)C)C(=O)N[C@@H](CCSC)C(=O)N[C@@H](Cc1cnc[nH]1)C(=O)N[C@@H](CC(N)=O)C(=O)N[C@@H](CC(C)C)C(=O)NCC(=O)N[C@@H](CCCCN)C(=O)N[C@@H](Cc1cnc[nH]1)C(=O)N[C@@H](CC(C)C)C(=O)N[C@@H](CC(N)=O)C(=O)N[C@@H](CO)C(=O)N[C@@H](CCSC)C(=O)N[C@@H](CCC(=O)O)C(=O)N[C@@H](CCCN=C(N)N)C(=O)N[C@H](C(=O)N[C@@H](CCC(=O)O)C(=O)N[C@@H](Cc1c[nH]c2ccccc12)C(=O)N[C@@H](CC(C)C)C(=O)N[C@@H](CCCN=C(N)N)C(=O)N[C@@H](CCCCN)C(=O)N[C@@H](CCCCN)C(=O)N[C@@H](CC(C)C)C(=O)N[C@@H](CCC(N)=O)C(=O)N[C@@H](CC(=O)O)C(=O)N[C@H](C(=O)N[C@@H](Cc1cnc[nH]1)C(=O)N[C@@H](CC(N)=O)C(=O)N[C@@H](Cc1ccccc1)C(=O)O)C(C)C)C(C)C [compound 1], which “Effective transmittance (Pe)” value [2] is on record?
**A.** 0.582 ± 0.132 ×10^−6 cm/s

**Q.** And the Papp [3]?
**A.** 0.362 ± 0.045 ×10⁻⁶ cm/s

**Q.** What about the bioavailability ([1]; 0.1 mg/kg) of the same compound?
**A.** 0.81 ± 0.191%

**Q.** What about the AUCinf [1, 6] of the same compound?
**A.** 0.031 ± 0.007 ng ·) sh/mL

**Q.** And the AUClast [1, 6]?
**A.** 0.030 ± 0.007 ng ·) sh/mL

**Q.** What about the AUC(0-t) ([1]; in vivo, 0.1 mg/kg) of the same compound?
**A.** 0.03 ± 0.007 ng·h/mL

**Q.** What about the Cmax ([1]; in vivo, 0.1 mg/kg) of the same compound?
**A.** 0.041 ± 0.01 ng/mL

**Q.** What about the Tmax ([1]; in vivo, 0.1 mg/kg) of the same compound?
**A.** 19.8 ± 8.4 min
